# Assay results reported in patent publication US10017823B2, “Analytical method for increasing susceptibility of molecular targeted therapy in hepatocellular carcinoma” (CBS BIOSCIENCE, CO., LTD, priority 2013, dated 2018).
# Tests used:
# hepatocellular carcinoma = test: Susceptibility assay in sorafenib-administered patients (tumor response according to RECIST); assay type: in vivo
# From the text: The term “patient having susceptibility to sorafenib treatment” refers to a hepatocellular carcinoma patient showing response according to the sorafenib administration (i.e., tumor response). […] N Engl J Med 359: 378-390.
# In the samples derived from 23 sorafenib-administered patients, we analyzed the relationship between the 7 marker gene expression patterns and the sorafenib efficacies. From the hierarchical clustering analysis results of FIG. 5, clustering without primary classification according to BCLC stages was performed according to expression ratio (tumor/non-tumor) of the target molecules; and then the 23 sorafenib-administered patients (i to xxiii) were correspondingly arranged thereto (FIG. 6). […] N Engl J Med 359: 378-390.
# advanced HCC = settings: HCC patients, stated as very low; cited from earlier work
smiles,measurement,setting,value
CNC(=O)c1cc(Oc2ccc(NC(=O)Nc3ccc(Cl)c(C(F)(F)F)c3)cc2)ccn1 [sorafenib],tumor response according to RECIST,"hepatocellular carcinoma; patients viii, x, xi of the 23 sorafenib-administered HCC patients",partial response
same,susceptibility to the sorafenib treatment (RECIST tumor response),hepatocellular carcinoma; remaining 20 of the 23 sorafenib-administered HCC patients,not susceptible
same,response rate of sorafenib,advanced HCC,about 3%
